Data from US20260167692A1, “POLYPEPTIDES AND RELATED SUBSTANCES AGAINST HAIR LOSS AND DERMATITIS, AND USES THEREOF” (SHENZHEN INSTITUTES OF ADVANCED TECHNOLOGY, priority 2023, published 2026).
Read-outs that look alike come from different tables or passages of the source. Where a SMILES comes first, the peptide text is derived from it. Where no end group is shown, it is not given here.

Columns and labels:
male C57BL/6 mice = test: Androgenetic (seborrheic) hair loss mouse model (DHT); assay type: in vivo; details: 28 days
Procedure: 7-week-old male C57BL/6 mice were treated with application of DHT (a modeling and experimental cycle of 28 days).
Hair at a telogen phase on 2×2 cm areas of dorsa was removed, and the areas were depilated using a hair removal cream. A DHT solution (0.2%, w/v) was prepared in an ethanol solution (50%, v/v). Mice received topical application of the DHT solution (0.1 mL/cm^2) to the depilated areas, once a day, for 28 consecutive days. Mice in the other group received the polypeptide via oral gavage at a concentration of 0.5 mg/kg/day while applied with the DHT daily.

[1] = tested on: human primary dermal papilla cells; details: 10 nM DHT, 24 hours
Procedure: A fibroblast medium was used as a medium.
24 hours after serum-starved cells were removed, human primary dermal papilla cells were treated with a high level of androgen by adding 10 nM DHT to a culture medium. Expression levels of cellular molecular markers (including 5α-dehydrogenase, AR, CD200, IL-6, BCL2, BAX, and FABP3) were detected after 24 hours. Homologous polypeptides from different species (the polypeptides from Example 7) were concurrently added for co-culture, and the expression levels of the cellular molecular markers were detected after 24 hours.

[2] = tested on: human primary dermal papilla cells; test: Cortisol-induced psychological stress hair loss cell model; assay type: cell-based; details: 1 μM cortisol, 24 hours
Procedure: A fibroblast medium was used as a medium. […] Expression levels of cellular molecular markers (including 5α-dehydrogenase, GR, AR, CD200, IL-6, BCL2, and BAX) were detected after 24 hours.

[3] = tested on: brains, ovaries, uteruses and adrenal glands of female mice; test: In vivo targeting of polypeptide-ICG/Cy5 probe in female mice (small animal imaging); design: species or system mouse; details: adult female mice, tail vein injection 100 μL of ICG- or Cy5-labeled polypeptide, imaging after 24 hours, vs control group
Procedure: Adult female mice were intravenously injected via tail veins with the following: the polypeptide-ICG probe solution prepared in Example 2/Cy5-labeled polypeptide, an ICG solution (2 mM)/control polypeptide (a scrambled, irrelevant polypeptide), and a phosphate buffered saline (PBS). Each mouse received an injection volume of 100 μL. After 24 hours, detection was performed using a small animal imaging instrument.

[4] = tested on: brain, gonad and adrenal gland tissues of male mice; test: In vivo targeting of Cy5-labeled polypeptide in male mice (small animal imaging); design: species or system mouse; details: adult male mice, tail vein injection 100 μL of Cy5-labeled polypeptide, imaging after 24 hours, vs control group
Procedure: Adult male mice were intravenously injected via tail veins with the following: the Cy5-labeled polypeptide prepared in Example 2, a control polypeptide (a scrambled, irrelevant polypeptide), and a PBS. Each mouse received an injection volume of 100 μL. After 24 hours, detection was performed using a small animal imaging instrument.

GPR158 receptor = biological target: T1, GPR158 receptor (Homo sapiens, UniProt Q5T848); test: Binding of Cy5-labeled Ocn49/Ocn19 to HeLa cells highly expressing GPR158; assay type: cell-based; details: Cy5-labeled polypeptide incubated with GPR158-HeLa cells at 4° C., washed with PBS, FIG. 7
T1 construct: expressed in transfected cells; host or cells: HeLa cell line highly expressing GPR158 (GPR158-HeLa)
T1 sequence (Q5T848 24-1215): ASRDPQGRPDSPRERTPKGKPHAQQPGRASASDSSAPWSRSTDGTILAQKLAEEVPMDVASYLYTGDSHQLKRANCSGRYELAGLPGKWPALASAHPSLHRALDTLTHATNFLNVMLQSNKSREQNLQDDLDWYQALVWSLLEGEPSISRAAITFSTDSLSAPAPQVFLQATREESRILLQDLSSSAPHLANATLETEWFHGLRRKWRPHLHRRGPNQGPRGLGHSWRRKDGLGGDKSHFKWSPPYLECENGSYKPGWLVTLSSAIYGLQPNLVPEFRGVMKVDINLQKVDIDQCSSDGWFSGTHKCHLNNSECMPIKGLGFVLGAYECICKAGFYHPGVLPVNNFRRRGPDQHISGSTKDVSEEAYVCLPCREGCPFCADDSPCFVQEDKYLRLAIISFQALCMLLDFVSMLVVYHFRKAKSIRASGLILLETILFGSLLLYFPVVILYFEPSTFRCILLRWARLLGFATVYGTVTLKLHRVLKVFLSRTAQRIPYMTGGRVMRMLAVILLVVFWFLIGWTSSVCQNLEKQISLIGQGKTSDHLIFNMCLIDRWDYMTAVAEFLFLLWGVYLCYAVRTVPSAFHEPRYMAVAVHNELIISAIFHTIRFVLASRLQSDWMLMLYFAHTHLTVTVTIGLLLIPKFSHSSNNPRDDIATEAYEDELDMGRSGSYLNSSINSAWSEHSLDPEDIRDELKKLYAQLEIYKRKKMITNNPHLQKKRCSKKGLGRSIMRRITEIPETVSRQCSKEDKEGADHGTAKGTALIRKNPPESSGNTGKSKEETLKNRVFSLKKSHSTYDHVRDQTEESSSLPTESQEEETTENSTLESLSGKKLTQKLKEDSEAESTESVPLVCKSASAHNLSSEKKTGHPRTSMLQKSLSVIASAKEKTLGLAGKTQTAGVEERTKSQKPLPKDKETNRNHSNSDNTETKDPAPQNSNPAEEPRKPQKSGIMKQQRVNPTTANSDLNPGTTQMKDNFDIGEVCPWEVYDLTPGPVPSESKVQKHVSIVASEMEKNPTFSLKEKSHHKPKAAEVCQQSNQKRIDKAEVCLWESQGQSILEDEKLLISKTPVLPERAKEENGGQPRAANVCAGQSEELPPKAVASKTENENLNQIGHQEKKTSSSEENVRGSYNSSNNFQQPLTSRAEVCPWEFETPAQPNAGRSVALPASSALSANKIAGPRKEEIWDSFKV
Procedure: The polypeptide prepared in Example 1 was employed in this example, and a binding condition was observed via in vitro culture of the polypeptide with a Hela cell line highly expressing a GPR158 receptor.
(§1) A specific method involved that Cy5-labeled full-length human osteocalcin Ocn49, truncated human osteocalcin Ocn19 (SEQ ID NO.1), and HeLa cells highly expressing GPR158 were incubated at 4° C., and cells were subsequently washed with PBS. Polypeptides incapable of binding to the cells were considered as non-specific ligands, while polypeptides capable of binding to the cells were considered as specifically binding ligands. An interaction between the polypeptides and the receptor was verified accordingly.

[5] = biological target: T2, human GPR158 receptor (on HeLa cells highly expressing a GPR158 receptor) (human, UniProt Q5T848 24-1215); test: Cy5-labelled polypeptide incubated at 4 C with HeLa cells highly expressing GPR158, washed with PBS, fluorescence imaging
T2 construct: whole, on cells; also called GPR158-HeLa cells; human GPR158 receptor cells
T2 sequence (looked up): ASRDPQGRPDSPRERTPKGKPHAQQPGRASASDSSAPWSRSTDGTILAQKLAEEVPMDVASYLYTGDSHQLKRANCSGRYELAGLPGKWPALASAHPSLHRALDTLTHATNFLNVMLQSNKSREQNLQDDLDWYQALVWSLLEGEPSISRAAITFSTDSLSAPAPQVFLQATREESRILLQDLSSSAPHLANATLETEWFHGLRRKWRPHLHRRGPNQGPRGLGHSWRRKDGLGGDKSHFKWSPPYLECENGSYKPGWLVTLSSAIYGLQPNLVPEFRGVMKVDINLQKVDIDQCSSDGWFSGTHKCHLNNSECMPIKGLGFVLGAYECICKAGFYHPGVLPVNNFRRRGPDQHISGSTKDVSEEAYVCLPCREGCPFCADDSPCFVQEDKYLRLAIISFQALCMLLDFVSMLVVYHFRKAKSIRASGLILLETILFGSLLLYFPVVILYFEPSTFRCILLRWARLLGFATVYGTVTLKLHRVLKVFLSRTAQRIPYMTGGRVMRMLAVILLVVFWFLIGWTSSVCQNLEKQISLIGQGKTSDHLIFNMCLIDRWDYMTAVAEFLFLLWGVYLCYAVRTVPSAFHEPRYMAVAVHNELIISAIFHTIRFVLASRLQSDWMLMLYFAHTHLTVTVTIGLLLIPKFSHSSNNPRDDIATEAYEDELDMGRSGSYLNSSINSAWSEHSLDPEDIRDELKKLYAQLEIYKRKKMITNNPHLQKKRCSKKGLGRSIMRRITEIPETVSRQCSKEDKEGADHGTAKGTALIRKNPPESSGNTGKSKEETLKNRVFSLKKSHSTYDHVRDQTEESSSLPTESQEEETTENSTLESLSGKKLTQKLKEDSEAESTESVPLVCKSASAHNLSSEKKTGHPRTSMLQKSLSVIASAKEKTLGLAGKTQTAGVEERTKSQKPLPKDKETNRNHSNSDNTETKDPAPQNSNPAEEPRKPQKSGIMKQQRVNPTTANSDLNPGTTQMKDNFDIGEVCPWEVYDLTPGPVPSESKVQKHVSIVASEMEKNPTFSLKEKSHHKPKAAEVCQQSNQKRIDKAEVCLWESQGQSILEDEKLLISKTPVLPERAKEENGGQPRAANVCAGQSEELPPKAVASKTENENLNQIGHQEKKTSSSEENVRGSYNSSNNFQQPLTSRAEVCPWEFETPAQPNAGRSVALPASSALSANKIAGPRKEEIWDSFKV
Procedure: as §1

[6] = topical DHT 0.2% w/v, 0.1 mL/cm^2 once a day

## C[C@]12CCC(=O)C[C@@H]1CC[C@@H]1[C@@H]2CC[C@]2(C)[C@@H](O)CC[C@@H]12 [DHT, dihydrotestosterone]
Male C57BL/6 mice; topical DHT 0.2% w/v once a day, FIG. 13
  expression level of AR in cervicodorsal skins (immunofluorescence): significantly increased
Male C57BL/6 mice; topical DHT 0.2% w/v once a day, FIG. 14
  genes related to lipases, adipocyte differentiation, and lipoproteins in cervicodorsal skins: significantly increased
Male C57BL/6 mice; [6]
  skin expression level of β-catenin gene: decrease
  skin expression levels of TGF-β, DKK1, IL-6, and AR genes: increase
[1]
  apoptosis of hair follicle cells (Caspase-3, BCL2, BAX): increased
  expression level of hair follicle regression marker MMP-9: increased
  expression level of hair follicle stem cell marker CD200: decreased
  expression levels of androgen receptor (AR), 5α-reductase, androgen synthesis-related enzymes (3βHSD and 17βHSD3): significantly increased
  expression levels of fatty acid-binding protein FABP3 and adipogenic differentiation factor PPARγ: increased
  expression levels of inflammatory factors (TGF-β, TNF-α, and IL-6): increased

## C[C@]12CCC(=O)C=C1CC[C@@H]1[C@@H]2[C@@H](O)C[C@@]2(C)[C@H]1CC[C@]2(O)C(=O)CO [cortisol]
[2]
  apoptosis of hair follicle cells (Caspase-3, BCL2, BAX): increased
  expression level of hair follicle regression marker MMP-9: increased
  expression levels of STIP1 and inflammatory factors (TGF-β1 and IL-6): increased
  expression levels of glucocorticoid receptor (GR), androgen receptor (AR), and 5α-reductase: significantly increased
  expression levels of hair growth marker GAS6 and hair follicle stem cell markers CD200 and CD133: decreased

## CC(C)C[C@H](NC(=O)[C@@H](N)Cc1ccc(O)cc1)C(=O)NCC(=O)N[C@@H](C)C(=O)N[C@@H](CO)C(=O)N[C@H](C(=O)N1CCC[C@H]1C(=O)N[C@@H](CO)C(=O)N1CCC[C@H]1C(=O)N[C@@H](CC(=O)O)C(=O)N1CCC[C@H]1C(=O)N[C@@H](CC(C)C)C(=O)N[C@@H](CCC(=O)O)C(=O)N1CCC[C@H]1C(=O)N[C@H](C(=O)O)[C@@H](C)O)C(C)C [mO15, YLGASVPSPDPLEPT] (H-YLGASVPSPDPLEPT-OH; N-terminus and C-terminus assumed)
[3]
  fluorescence signals in brain tissues (brain entry): enters the brains
  localization and binding in hypothalamus, ovary and uterus, and adrenal gland tissues (fluorescence signals): specific localization and binding capabilities
[4]
  fluorescence signals in brain tissues (brain entry): enters the brains
  localization and binding in brain, gonad (testis, epididymis) and adrenal gland tissues (fluorescence signals): specific localization and binding capabilities

## Ocn49: full-length human osteocalcin (YLYQWLGAPVPYPDPLEPRREVCELNPDCDELADHIGFQEAYRRFYGPV)
GPR158 receptor
  binding to the GPR158 receptor: capable of binding to the GPR158 receptor
  internalization of the GPR158 receptor: induces internalization of the GPR158 receptor

## YLYQWLGAPVPYPDPLEPR (listed as Homo sapiens) [Ocn19, human osteocalcin-derived peptide (truncated human osteocalcin)]
GPR158 receptor
  binding to the GPR158 receptor: capable of binding to the GPR158 receptor
  internalization of the GPR158 receptor: induces internalization of the GPR158 receptor

## YLYQWLGAPVPYPDPLEPR (not fully specified, also called human Ocn19) [truncated human osteocalcin Ocn19 (human osteocalcin-derived peptide)]
[5]
  binding result: binds

## YLYQWLGAPVPYPDPLEPRREVCELNPDCDELADHIGFQEAYRRFYGPV (ligand, UniProt P02818 52-100, looked up, ends and bridges not checked; also: Cy5 label, site not given here, mature; also called human Ocn49) [full-length human osteocalcin Ocn49]
[5]
  binding result: binds
